Experimental data: PubChem BioAssay AID2060488 (Molecular Pharmacology Branch, DTP, NCI, 2025)

Tested on: 966289-007-R4-J1-PDC complex spheroid viability
Test: Anticancer human tumor 966289-007-R4-J1-PDC patient-derived pancreatic adenocarcinoma cell line growth inhibition [GQUAD]
Settings: for IC50: curve of first compound; for viability, T/C: stronger effect = lower value; active means viability on the fitted dose curve at most 10% of control; inactive means the rest
Procedure, shortened: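 Multi-cell-type spheroids of tumor cells with HUVEC and mesenchymal stem cells, treated with drug combinations. Concentrations descend in half-log steps from near clinical Cmax, or from 10 microM where Cmax is unknown; viability read-out.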

[1] = second compound 0.0316 µM, first compound 0.0316 µM
[2] = second compound 0.0316 µM, first compound 0.1 µM
[3] = second compound 0.0316 µM, first compound 0.316 µM
[4] = second compound 0.0316 µM, first compound 1 µM
[5] = second compound 0.0316 µM, first compound 3.16 µM
[6] = second compound 0.0316 µM, first compound 10 µM
[7] = second compound 0.1 µM, first compound 0.0316 µM
[8] = second compound 0.1 µM, first compound 0.1 µM
[9] = second compound 0.1 µM, first compound 0.316 µM
[10] = second compound 0.1 µM, first compound 1 µM
[11] = second compound 0.1 µM, first compound 3.16 µM
[12] = second compound 0.1 µM, first compound 10 µM
[13] = second compound 0.316 µM, first compound 0.0316 µM
[14] = second compound 0.316 µM, first compound 0.1 µM
[15] = second compound 0.316 µM, first compound 0.316 µM
[16] = second compound 0.316 µM, first compound 1 µM
[17] = second compound 0.316 µM, first compound 3.16 µM
[18] = second compound 0.316 µM, first compound 10 µM
[19] = second compound 1 µM, first compound 0.0316 µM
[20] = second compound 1 µM, first compound 0.1 µM
[21] = second compound 1 µM, first compound 0.316 µM
[22] = second compound 1 µM, first compound 1 µM
[23] = second compound 1 µM, first compound 3.16 µM
[24] = second compound 1 µM, first compound 10 µM
[25] = second compound 3.16 µM, first compound 0.0316 µM
[26] = second compound 3.16 µM, first compound 0.1 µM
[27] = second compound 3.16 µM, first compound 0.316 µM
[28] = second compound 3.16 µM, first compound 1 µM
[29] = second compound 3.16 µM, first compound 3.16 µM
[30] = second compound 3.16 µM, first compound 10 µM
[31] = second compound 10 µM, first compound 0.0316 µM
[32] = second compound 10 µM, first compound 0.1 µM
[33] = second compound 10 µM, first compound 0.316 µM
[34] = second compound 10 µM, first compound 1 µM
[35] = second compound 10 µM, first compound 3.16 µM
[36] = second compound 10 µM, first compound 10 µM
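Further: spheroids exposed to the agents for seven days before readout.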
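Wherever viability, T/C is given: percent viability relative to DMSO vehicle control wells taken as 100%.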

C#Cc1c(F)ccc2cc(O)cc(-c3ncc4c(N5CC6CCC(C5)N6)nc(OCC56CCCN5CC(F)C6)nc4c3F)c12 (stereo unspecified) + CN(C)c1ccc(Nc2c3ccc(NC(=O)CCN4CCCC4)cc3nc3cc(NC(=O)CCN4CCCC4)ccc23)cc1
inactive: viability, T/C [1] 103% | viability, T/C [2] 88.4% | viability, T/C [3] 98.5% | viability, T/C [4] 86.7% | viability, T/C [5] 95.9% | viability, T/C [6] 93.5% | viability, T/C [7] 96.8% | viability, T/C [8] 84.4% | viability, T/C [9] 94.5% | viability, T/C [10] 89% | viability, T/C [11] 90.7% | viability, T/C [12] 96% | viability, T/C [13] 98.2% | viability, T/C [14] 91.2% | viability, T/C [15] 105% | viability, T/C [16] 96.3% | viability, T/C [17] 95.2% | viability, T/C [18] 103% | viability, T/C [19] 87.9% | viability, T/C [20] 89.9% | viability, T/C [21] 98.8% | viability, T/C [22] 96.8% | viability, T/C [23] 95.5% | viability, T/C [24] 102% | viability, T/C [25] 88.5% | viability, T/C [26] 91.1% | viability, T/C [27] 96.8% | viability, T/C [28] 99.4% | viability, T/C [29] 104% | viability, T/C [30] 68.7% | viability, T/C [31] 104% | viability, T/C [32] 106% | viability, T/C [33] 103% | viability, T/C [34] 85% | viability, T/C [35] 16.1%
1.79 µM: IC50 (second compound 10 µM)
active: viability, T/C [36] 0.99%
> 10 µM: IC50 (second compound 0.0316 µM) | IC50 (second compound 0.1 µM) | IC50 (second compound 0.316 µM) | IC50 (second compound 1 µM) | IC50 (second compound 3.16 µM)

CC(=O)O[C@H]1C(=O)[C@@]2(C)[C@H]([C@H](OC(=O)c3ccccc3)[C@]3(O)C[C@H](OC(=O)[C@H](O)[C@@H](NC(=O)c4ccccc4)c4ccccc4)C(C)=C1C3(C)C)[C@]1(OC(C)=O)CO[C@@H]1C[C@@H]2O + CN(C)c1ccc(Nc2c3ccc(NC(=O)CCN4CCCC4)cc3nc3cc(NC(=O)CCN4CCCC4)ccc23)cc1
active: viability, T/C [1] 6.18% | viability, T/C [2] 3.03% | viability, T/C [3] 4.68% | viability, T/C [4] 5.91% | viability, T/C [5] 9.45% | viability, T/C [6] 14.6% | viability, T/C [7] 6.28% | viability, T/C [8] 3.31% | viability, T/C [9] 4.65% | viability, T/C [10] 7.21% | viability, T/C [11] 8.08% | viability, T/C [12] 13.5% | viability, T/C [13] 6.93% | viability, T/C [14] 3.41% | viability, T/C [15] 4.38% | viability, T/C [16] 6.89% | viability, T/C [17] 8.86% | viability, T/C [18] 12.6% | viability, T/C [19] 6.47% | viability, T/C [20] 3.38% | viability, T/C [21] 4.34% | viability, T/C [22] 6.41% | viability, T/C [23] 9.91% | viability, T/C [24] 12% | viability, T/C [25] 5.06% | viability, T/C [26] 3.06% | viability, T/C [27] 4.72% | viability, T/C [28] 6.71% | viability, T/C [29] 7.72% | viability, T/C [30] 11.3% | viability, T/C [31] 3.86% | viability, T/C [32] 2.35% | viability, T/C [33] 3.67% | viability, T/C [34] 4.43% | viability, T/C [35] 6.04% | viability, T/C [36] 6.46%
< 0.0316 µM: IC50 (second compound 0.0316 µM) | IC50 (second compound 0.1 µM) | IC50 (second compound 0.316 µM) | IC50 (second compound 1 µM) | IC50 (second compound 3.16 µM) | IC50 (second compound 10 µM)

CC(C)(O)C1CCC(Nc2ccc3ncc(-c4cccc(C(F)(F)F)c4)n3n2)CC1 (stereo unspecified) + CN(C)c1ccc(Nc2c3ccc(NC(=O)CCN4CCCC4)cc3nc3cc(NC(=O)CCN4CCCC4)ccc23)cc1
2.09 µM: IC50 (second compound 1 µM)
active: viability, T/C [29] 2.64% | viability, T/C [30] 1.96% | viability, T/C [35] 0.21% | viability, T/C [36] 0.8%
1.83 µM: IC50 (second compound 3.16 µM)
3.08 µM: IC50 (second compound 0.316 µM)
> 10 µM: IC50 (second compound 0.0316 µM)
inactive: viability, T/C [1] 108% | viability, T/C [2] 102% | viability, T/C [3] 101% | viability, T/C [4] 95.3% | viability, T/C [5] 53.1% | viability, T/C [6] 57.9% | viability, T/C [7] 109% | viability, T/C [8] 101% | viability, T/C [9] 98.1% | viability, T/C [10] 103% | viability, T/C [11] 39.4% | viability, T/C [12] 53.4% | viability, T/C [13] 97.7% | viability, T/C [14] 100% | viability, T/C [15] 95.8% | viability, T/C [16] 110% | viability, T/C [17] 43.9% | viability, T/C [18] 53.8% | viability, T/C [19] 95.1% | viability, T/C [20] 103% | viability, T/C [21] 102% | viability, T/C [22] 97.5% | viability, T/C [23] 18.3% | viability, T/C [24] 28.3% | viability, T/C [25] 103% | viability, T/C [26] 98.7% | viability, T/C [27] 100% | viability, T/C [28] 106% | viability, T/C [31] 103% | viability, T/C [32] 104% | viability, T/C [33] 104% | viability, T/C [34] 20.9%
2.94 µM: IC50 (second compound 0.1 µM)
0.668 µM: IC50 (second compound 10 µM)
